Laboratory results as given in patent US6469034B1, “Cyclohexenyl-ethyl-thiourea compounds for inhibiting HIV reverse transcriptase” (Parker Hughes Institute, priority 1999, dated 2002).
Where two headings read alike, the source gives them in different places.

Assays:
[1] = tested on: multidrug resistant HIV-1 strain RT-MDR; assay: microbe, parasite or virus in culture; assay type: cell-based; conditions: for times more effective against RT-MDR than against HTLVIIIB: ratio RT-MDR vs HTLVIIIB; for times more potent than AZT against RT-MDR: vs AZT; for times more potent than MKC-442 against RT-MDR: vs MKC-442; for times more potent than delavirdine against RT-MDR: vs delavirdine; for times more potent than nevirapine against RT-MDR: vs nevirapine; for times more potent than trovirdine against RT-MDR: vs trovirdine
Method: (§1) In addition, the anti-HIV activity of the compounds was measured by determining their ability to inhibit the replication of the HIV-1 strains HTLVIIIB, RT-MDR, A17, and A17 variant in peripheral blood mononuclear cells (PBMC) from healthy volunteer donors, using the method described in Uckun et.al., 1998, Antimicrobial Agents and Chemotherapy 42:383.
(§2) Normal human peripheral blood mononuclear cells (PBMNC) from HIV-negative donors were cultured 72 hours in RPMI 1640 supplemented with 20% (v/v) heat-inactivated fetal bovine serum (FBS), 3% interleukin-2,2 mM L-glutairine, 25 mM HEPES, 2 μL, NAHCO, […] gentamicin, and 4 μg/mL phytohemagglutinin prior to exposure to HIV-1 or other HIV strain at a multiplicity of infection (MOI) of 0.1 during a one-hour adsorption period at 37° C. in a humidified 5% CO2 atmosphere. Subsequently, cells were cultured in 96-well microplates (100 μL/well; 2×10^6 cells/mL, triplicate wells) in the presence of various inhibitor concentrations. Aliquots of culture supernatants were removed from the wells on the 7th day after infection for p24 antigen p24 enzyme immunoassays (EIA), as previously described in Erice et al., 1993, Antimicrob. Ag. Chemotherapy 37:385-838. The applied p24 EIA was the unmodified kinetic assay commercially available from Coulter Corporation/Immunotech, Inc. (Westbrook, Me.). Percent inhibition of viral replication was calculated by comparing the p24 values from the test substance-treated infected cells with p24 values from untreated infected cells (i.e, virus controls).
(§3) RT-MDR was obtained through the AIDS Research and Reference Reagent Program, from Dr. Bendan Larder, and is described in Larder et al., 1993, Nature, 365, 451-453.

[2] = tested on: RT Y181C mutant A17 strain; assay: microbe, parasite or virus in culture; assay type: cell-based, HIV-1; conditions: for IC50: read-out: IC50 A17
Method: as §1, §2, §3

[3] = Microculture tetrazolium assay (MTA, XTT) for cytotoxicity; assay type: cell-based; conditions: for CC50: cytotoxicity, XTT; for toxicity at effective concentrations: in words
[4] = tested on: HIV-1 strain HTLVIIIB; assay: Inhibition of HIV p24 antigen production in PBMC, strain HTLVIIIB; assay type: cell-based; conditions: read-out: IC50 HTLVIIIB
Method: as §1, §2, §3

[5] = tested on: A17 variant with both Y181C and K103N mutations in RT; assay: microbe, parasite or virus in culture; assay type: cell-based, HIV-1; conditions: read-out: IC50 A17 variant
Method: as §1, §2, §3

[6] = target: T1, purified recombinant HIV RT (Human immunodeficiency virus type 1 group M subtype B, UniProt P03366); assay: Purified RT assay, cell-free Quan-T-RT scintillation proximity assay; assay type: biochemical
T1 construct: Addition of 10 mU of recombinant HIV RT
Method: In the assay, a DNA/RNA template is bound to SPA beads via a biotin/strepavidin linkage. The primer DNA is a 16-mer oligo(T) which has been annealed to a poly(A) template. The primer/template is bound to a strepavidin-coated SPA bead.
^3H-TTP is incorporated into the primer by reverse transcription. […] The compound being tested was added to the reaction mixture at 0.001 μM-100 μM concentrations. […] The reaction was stopped by addition of 0.2 ml of 120 mM EDTA. The samples were counted in an open window using a Beckman LS 7600 instrument and IC50 values were calculated by comparing the measurements to untreated samples.

[7] = ranking order of potency, read-out: IC50 against RT-MDR
[8] = Human immunodeficiency virus 1, PBMC, 168 h
[9] = Human immunodeficiency virus 1, PBMC, 168 h, read-out: IC50 RT-MDR
[10] = Human immunodeficiency virus 1, PBMC, read-out: IC50 against RT-MDR
[11] = recombinant HIV RT, 37° C., 1 hour, read-out: IC50 rRT

SMILES	CC50 [3]	IC50 [4, 8]	IC50 [1, 9]	IC50 [1, 10]	IC50 [5, 8]	IC50 [2, 8]	IC50 [6]	melting point	IC50 [6, 11]	further results
Cc1cn([C@H]2C[C@H](N=[N+]=[N-])[C@@H](CO)O2)c(=O)[nH]c1=O [AZT, reference compound]	> 100000 nM									IC50 [1, 7]: 200 nM; IC50 ([2]; p24 production in PBMC, day 7): 6 nM
CC(C)Nc1cccnc1N1CCN(C(=O)c2cc3cc(NS(C)(=O)=O)ccc3[nH]2)CC1 [Delavirdine, reference compound]	3600 nM	9 nM	400 nM	400 nM	> 100000 nM	50000 nM				
S=C(NCCC1=CCCCC1)Nc1ccc(Br)cn1 [HI-346, N-[2-(5-Bromopyridinyl)]-N′-[2-(1-Cyclohexenyl)ethyl]thiourea]	> 100000 nM	3 nM	1 nM	1 nM	18700 nM		400 nM	172 to 173 °C		times more effective against RT-MDR than against HTLVIIIB [1]: 3 times; times more potent than AZT against RT-MDR [1]: 200 times; times more potent than MKC-442 against RT-MDR [1]: 300 times; times more potent than delavirdine against RT-MDR [1]: 400 times; times more potent than nevirapine against RT-MDR [1]: 5000 times; times more potent than trovirdine against RT-MDR [1]: 20 times; toxicity at effective concentrations [3]: Neither compound exhibited significant toxicity
FC(F)(F)c1ccc(NC(=S)NCCC2=CCCCC2)nc1 [HI-347, N-[2-(5-Trifluoromethylpyridinyl)]-N′-[2-(1-Cyclohexenyl)ethyl]thiourea]	> 100000 nM	79 nM	38 nM		> 100000 nM	300 nM	4000 nM	161 to 162 °C		
CC1(C)C2CCC(CNC(=S)Nc3ccc(Br)cn3)C1C2 (stereo not drawn) [HI-444, N-[2-(5-Bromopyridinyl)]-N′-[2-(2-Myrtanyl)]thiourea]								180 to 181 °C	> 100000 nM	
S=C(NCCC1=CCCCC1)Nc1ccc(Cl)cn1 [HI-445, N-[2-(5-Chloropyridinyl)]-N′-[2-(1-Cyclohexenyl)ethyl]thiourea]	> 100000 nM	3 nM	1 nM	1 nM	30000 nM	68 nM	500 nM	165 °C		times more effective against RT-MDR than against HTLVIIIB [1]: 3 times; times more potent than AZT against RT-MDR [1]: 200 times; times more potent than MKC-442 against RT-MDR [1]: 300 times; times more potent than delavirdine against RT-MDR [1]: 400 times; times more potent than nevirapine against RT-MDR [1]: 5000 times; times more potent than trovirdine against RT-MDR [1]: 20 times; fold more effective than nevirapine or delavirdine against A17 ([2]; vs nevirapine or delavirdine): > 1,400 fold; fold more effective than trovirdine against A17 ([2]; vs trovirdine): > 7 fold; toxicity at effective concentrations [3]: Neither compound exhibited significant toxicity
S=C(NCCC1C2CC3CC(C2)CC1C3)Nc1ccc(Br)cn1 (stereo not drawn) [HI-504, N-[2-(5-Bromopyridinyl)]-N′-[2-(2-Adamantyl)]thiourea]									> 100000 nM	
CCOCn1c(Cc2ccccc2)c(C(C)C)c(=O)[nH]c1=O [MKC-442, reference compound]	> 100000 nM		300 nM	300 nM					800 nM	
Cc1ccnc2c1NC(=O)c1cccnc1N2C1CC1 [Nevirapine, reference compound]	10500 nM	34 nM	5000 nM	5000 nM	> 100000 nM	> 100000 nM				
S=C(NCCc1ccccn1)Nc1ccc(Br)cn1 [Trovirdine, N-[2-(5-Bromopyridinyl)]-N′-[2-(Pyridinyl)]thiourea, reference compound]	> 100000 nM								800 nM	IC50 ([4]; p24 production in PBMC, day 7): 7 nM; IC50 [1, 7]: 20 nM; IC50 ([5]; p24 production in PBMC, day 7): > 100000 nM; IC50 ([2]; p24 production in PBMC, day 7): 500 nM
